From patent US20200088732A1, “METHODS FOR THE DIAGNOSIS AND TREATMENT OF PANCREATIC DUCTAL ADENOCARCINOMA” (INSERM (Institut National de la Santé et de la Recherche …, priority 2017, published 2020)

Tests used:
Type in all cases: cell-based
Pk4A cells = assay: Ex vivo peri-neural invasion assay (mouse sciatic nerve co-cultured with cancer cells)
Method: The day before the experiment 125,000 PK4A cells are seeded in 24 well plates in DMEM supplemented with 10% FBS and 1% antibiotic/antimycotic. 24 hrs after inhibitors (AG490 at 30 μmol/L or SC144 at 2 μmol/L) were added for 2 h. […] A mouse sciatic nerve section (5 mm) is placed in every well and cultured for 48 hrs then nerve sections are fixed 24 hrs in 4% formaldehyde and embedded in paraffin for immunohistochemistry study. Nerve sections from each condition are cut to make 4 μm sections from 2 different depths spaced by 50 μm and fixed on slides. Slides are processed for cytokeratin immunostaining by IHC as mentioned above. Cells stained with cytokeratine inside or in contact with nerve are recorded (Image J software).
Using human PDA slides, we observed that PAP/REG3A staining is associated with nerve density (Data not shown). Indeed, nerve fibers are mainly present in tissues areas where PAP/REG3A is strongly expressed. […] To further deepen the suspected role of PAP/REG3A as favoring PNI, we designed a specific ex-vivo experiment. Such experiment was done using mouse sciatic nerve fibers that we incubated with Pk4A cells+/−PAP/REG3β mouse recombinant protein (Data not shown). […]

[1] = system: Human pancreatic cancer cell, Panc-1; assay: Cell migration assay (Boyden chambers), Panc-1 cells; conditions: 100 ng/mL PAP/REG3A recombinant protein, AG490 at 30 μM, P<0.05, FIG. 2C
Method: (§1) Cancer cell migration was studied using PKA4 and PANC-1 cell lines under different media (medium with or without recombinant PAP/REG3A or conditioned medium from acinar cells) on Boyden chambers. Culture inserts from BD Biosciences (353097, Le pont le Claix, FR), with a porous membrane of […], were coated with a mix made of gelatin 0.1% from Sigma-Aldrich (G1890, St Quentin, FR) and fibronectin 10 μg/mL from Sigma-Aldrich (F0895, St Quentin, FR) then seeded with PK4A or PANC-1 cells (100 0000 or 75 000 cells respectively per insert) and placed into wells containing culture media (with or without recombinant PAP/REG3A). PAP/REG3A or […] were used from 0 to 500 ng/mL. Migration was performed for 4 hrs for medium with or without recombinant PAP/REG3A or β and for 1 hr 45 min for conditioned medium from acinar cells. After cleaning and briefly staining inserts with coomassie blue, migration was assessed by counting (Image J software) the number of colored cells in 8-16 high-power fields (magnification ×10).

[2] = system: Mouse pancreatic cancer cell, Pk4A; assay: Cell invasion assay (matrigel Boyden chambers), PK4A cells; conditions: PAP/REG3β 500 ng/mL, AG490 30 μmol/L, 24 hrs, P<0.05, FIG. 2D
Method: Cancer cell invasion was studied using PKA4 cells on Boyden chambers according to manufacturer's protocol (354480, Corning Lifesciences, Corning, N.Y., USA). Mouse recombinant PAP/REG3β was used at 500 ng/mL and AG490 at 30 μmol/L. Culture inserts were pre-coated with matrigel matrix then seeded with PK4A (100 0000 cells per insert) and placed into wells containing the medium. Cell counting was measured after 24 hrs of incubation. After cleaning and briefly staining inserts with coomassie blue, invasion was assessed by counting (Image J software) the number of colored cells in 8-16 high-power fields (magnification ×10).

[3] = system: Mouse pancreatic cancer cell, Pk4A; assay: Cell migration assay (Boyden chambers), Pk4A cells; conditions: versus ACm/PAP+ media, AG490 30 μM, 1 hr 45 min, P<0.05, FIG. 2E
Method: as §1

SMILES	effect of inhibitor on PAP/REG3β-induced nerve fibers invasion by pancreatic cancer cells (Pk4A cells; PAP/REG3β 500 ng/mL, AG490 30 μmol/L, FIG. 3A)	effect of inhibitor on PAP/REG3A-induced Panc-1 migration [1]	effect of inhibitor on PAP/REG3β-induced invasion [2]	change of the ACm/PAP+-induced increase of Pk4A migration [3]	PNI relative to acinar cell media containing PAP/REG3β (ACm/PAP+) (Pk4A cells; Pk4A with nerve fibers and acinar cell media, SC144 2 μmol/L, P<0.05, FIG. 3B)
N#C/C(=C\c1ccc(O)c(O)c1)C(=O)NCc1ccccc1 [AG490]	impairs significantly	impair PAP/REG3A effect on Panc-1 migration	inhibited	significantly reduced	–
O=C(NNc1nc2cc(F)ccc2n2cccc12)c1cnccn1 [SC144]	–	–	–	–	drastically reduced
